Reference: ChEMBL document CHEMBL4828763, “Discovery of Potent and Selective CDK9 Degraders for Targeting Transcription Regulation in Triple-Negative Breast Cancer” (J Med Chem, 2021)
Activity calls are given as the source filed them. The rule behind the calls is not given here.

What was measured:
MDA-MB-468 = experiment: Growth inhibition of human MDA-MB-468 cells assessed as cell viability measured after 4 days by WST8 assay; assay type: functional, cell-based; settings: MDA-MB-468, 96 h
BT-549 = experiment: Growth inhibition of human BT-549 cells assessed as cell viability measured after 4 days by WST8 assay; assay type: functional, cell-based; settings: BT-549, 96 h
MDA-MB-231 = experiment: Growth inhibition of human MDA-MB-231 cells assessed as cell viability measured after 4 days by WST8 assay; assay type: functional, cell-based; settings: MDA-MB-231, 96 h
[1] = target: Protein cereblon/Cyclin-dependent kinase 9 (Homo sapiens) (UniProt P50750+Q96SW2); experiment: Protac activity at CRBN/CDK9 in human MDA-MB-231 cells assessed as induction of degradation of CDK9 at 500 nM incubated for 8 hrs by Western blot analysis; assay type: cell-based
Protein cereblon/Cyclin-dependent kinase 9 (Homo sapiens), sequence (P50750 whole entry, looked up): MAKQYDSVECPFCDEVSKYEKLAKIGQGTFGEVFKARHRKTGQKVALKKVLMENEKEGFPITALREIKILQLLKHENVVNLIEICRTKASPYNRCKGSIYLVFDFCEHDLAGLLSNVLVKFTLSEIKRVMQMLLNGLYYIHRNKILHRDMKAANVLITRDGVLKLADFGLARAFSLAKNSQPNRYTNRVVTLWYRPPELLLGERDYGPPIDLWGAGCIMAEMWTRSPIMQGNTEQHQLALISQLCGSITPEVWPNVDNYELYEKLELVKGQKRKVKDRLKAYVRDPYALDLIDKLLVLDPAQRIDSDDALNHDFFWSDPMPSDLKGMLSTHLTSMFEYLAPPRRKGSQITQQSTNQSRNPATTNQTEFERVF
Protein cereblon/Cyclin-dependent kinase 9 (Homo sapiens), sequence (Q96SW2 whole entry, looked up): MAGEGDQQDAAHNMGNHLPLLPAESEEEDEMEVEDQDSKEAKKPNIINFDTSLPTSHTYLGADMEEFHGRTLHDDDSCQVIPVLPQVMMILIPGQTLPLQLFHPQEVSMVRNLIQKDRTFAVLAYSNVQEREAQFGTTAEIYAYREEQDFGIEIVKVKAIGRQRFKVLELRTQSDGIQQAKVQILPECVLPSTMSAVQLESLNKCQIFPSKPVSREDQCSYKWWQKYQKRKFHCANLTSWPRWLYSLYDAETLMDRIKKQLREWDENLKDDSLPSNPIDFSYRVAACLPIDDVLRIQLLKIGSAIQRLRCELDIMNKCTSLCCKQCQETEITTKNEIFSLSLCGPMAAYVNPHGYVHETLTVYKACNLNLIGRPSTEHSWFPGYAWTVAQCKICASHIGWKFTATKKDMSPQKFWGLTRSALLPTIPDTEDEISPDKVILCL

Structure (SMILES)	IC50 (MDA-MB-468) [µM]	IC50 (BT-549) [µM]	IC50 (MDA-MB-231) [µM]	Activity [1]
CC(C)c1cnn2c(NCc3ccc(NC(=O)COCCOCCOc4cccc5c4C(=O)N(C4CCC(=O)NC4=O)C5=O)cc3)nc(OC3CCN(C)CC3)nc12 (stereo not drawn)	4.59	3.78	9.2	
CC(C)c1cnn2c(NCc3cccc(CCCCCCCOc4cccc5c4C(=O)N(C4CCC(=O)NC4=O)C5=O)c3N(C)C)nc(OC3CCN(C)CC3)nc12 (stereo not drawn)	3.45	2.01	4.16	
CC(C)c1cnn2c(NCc3ccccc3)cc(NCCCCCCN)nc12	16.3	12.8	18.5	
CC(C)c1cnn2c(NCc3ccc(NC(=O)CCCCCCOc4cccc5c4C(=O)N(C4CCC(=O)NC4=O)C5=O)cc3)nc(OC3CCN(C)CC3)nc12 (stereo not drawn)	0.18	0.17	0.26	Active
CC(C)c1cnn2c(NCc3ccc(NC(=O)CCCCCN4CCN(CCCc5cccc6c5CN(C5CCC(=O)NC5=O)C6=O)CC4)cc3)nc(OC3CCN(C)CC3)nc12 (stereo not drawn)	0.24	0.19	0.9	
CC(C)c1cnn2c(NCc3ccc(NC(=O)CCCCCCCCOc4cccc5c4C(=O)N(C4CCC(=O)NC4=O)C5=O)cc3)nc(OC3CCN(C)CC3)nc12 (stereo not drawn)	0.12	0.12	0.13	Active
CC(C)c1cnn2c(NCc3ccc(CCCCCCCOc4cccc5c4C(=O)N(C4CCC(=O)NC4=O)C5=O)cc3N(C)C)nc(OC3CCN(C)CC3)nc12 (stereo not drawn)	2.87	4.11	4.16	
CC(C)c1cnn2c(NCc3ccc(CCCCCCCOc4cccc5c4C(=O)N(C4CCC(=O)NC4=O)C5=O)cc3)nc(OC3CCN(C)CC3)nc12 (stereo not drawn)	3.22	2.06	4.32	
CC(C)c1cnn2c(NCc3cccc(CCCCCCNC(=O)COc4cccc5c4C(=O)N(C4CCC(=O)NC4=O)C5=O)c3)cc(NCCCCCCN)nc12 (stereo not drawn)	16.3	12.8	> 20	
CC(C)c1cnn2c(NCc3ccccc3-n3ccnc3)nc(OC3CCN(C)CC3)nc12	3.92	2.26	9.29	
CC(C)c1cnn2c(NCc3ccccc3)cc(NCCCCCCNCCOCCOCCOCCNC(=O)COc3cccc4c3C(=O)N(C3CCC(=O)NC3=O)C4=O)nc12 (stereo not drawn)	> 20	> 20	> 20	
CC(C)c1cnn2c(NCc3ccc(NC(=O)CCCCCCCCCOc4cccc5c4CN(C4CCC(=O)NC4=O)C5=O)cc3)nc(OC3CCN(C)CC3)nc12 (stereo not drawn)	0.184	0.035	0.137	Active
CC(C)c1cnn2c(NCc3ccc(CCCCCCNC(=O)COc4cccc5c4C(=O)N(C4CCC(=O)NC4=O)C5=O)cc3N(C)C)nc(OC3CCN(C)CC3)nc12 (stereo not drawn)	5.24	8.39	5.28	
CC(C)c1cnn2c(NCc3ccccc3)cc(NCCCCCCNCCOCCNC(=O)COc3cccc4c3C(=O)N(C3CCC(=O)NC3=O)C4=O)nc12 (stereo not drawn)	> 20	> 20	> 20	
CC(C)c1cnn2c(NCc3ccccc3N(C)C)nc(OC3CCN(CCOCCOCCOCCNC(=O)COc4cccc5c4C(=O)N(C4CCC(=O)NC4=O)C5=O)CC3)nc12 (stereo not drawn)	> 20	> 20	> 20	
CC(C)c1cnn2c(NCc3ccccc3-n3ccnc3)nc(OC3CCN(CCOCCNC(=O)COc4cccc5c4C(=O)N(C4CCC(=O)NC4=O)C5=O)CC3)nc12 (stereo not drawn)	15.8	> 20	> 20	
CC(C)c1cnn2c(NCc3cc(NC(=O)CCCCCCNC(=O)COc4cccc5c4C(=O)N(C4CCC(=O)NC4=O)C5=O)ccc3N(C)C)nc(OC3CCN(C)CC3)nc12 (stereo not drawn)	> 20	> 20	> 20	
CC(C)c1cnn2c(NCc3ccc(NC(=O)CCCCCCCCOc4cccc5c4CN(C4CCC(=O)NC4=O)C5=O)cc3)nc(OC3CCN(C)CC3)nc12 (stereo not drawn)	0.3	0.2	0.17	Active
CC(C)c1cnn2c(NCc3ccc(NC(=O)CCCCCOc4cccc5c4C(=O)N(C4CCC(=O)NC4=O)C5)cc3)nc(OC3CCN(C)CC3)nc12 (stereo not drawn)	0.47	0.37	0.57	
CC(C)c1cnn2c(NCc3ccccc3N(C)C)nc(OC3CCN(C)CC3)nc12	8.78	1.03	11.9	
CC(C)c1cnn2c(NCc3ccccc3)nc(OC3CCN(C)CC3)nc12	3.07	0.53	3.01	

Structure (SMILES)	IC50 (MDA-MB-468) [µM]	IC50 (BT-549) [µM]	IC50 (MDA-MB-231) [µM]	Activity [1]
CC(C)c1cnn2c(NCc3ccc(NC(=O)CCCCCCNC(=O)COc4cccc5c4C(=O)N(C4CCC(=O)NC4=O)C5=O)cc3N(C)C)nc(OC3CCN(C)CC3)nc12 (stereo not drawn)	> 20	14.3	> 20	
CC(C)c1cnn2c(NCc3ccc(NC(=O)CCCCCN4CCN(CCCCCc5cccc6c5CN(C5CCC(=O)NC5=O)C6=O)CC4)cc3)nc(OC3CCN(C)CC3)nc12 (stereo not drawn)	0.222	0.08	0.251	
CC(C)c1cnn2c(NCc3ccc(NC(=O)CCCCCOc4cccc5c4C(=O)N(C4CCC(=O)NC4=O)C5=O)cc3)nc(OC3CCN(C)CC3)nc12 (stereo not drawn)	0.56	0.64	0.95	
CC(C)c1cnn2c(NCc3ccc(NC(=O)CCCCCCc4cccc5c4CN(C4CCC(=O)NC4=O)C5=O)cc3)nc(OC3CCN(C)CC3)nc12 (stereo not drawn)	0.13	0.23	0.2	Active
CC(C)c1cnn2c(NCc3ccc(CCCOCCOCCOc4cccc5c4C(=O)N(C4CCC(=O)NC4=O)C5=O)cc3)nc(OC3CCN(C)CC3)nc12 (stereo not drawn)	3.37	1.57	4.45	
CC(C)c1cnn2c(NCc3cccc(NC(=O)CCCCCCNC(=O)COc4cccc5c4C(=O)N(C4CCC(=O)NC4=O)C5=O)c3)nc(OC3CCN(C)CC3)nc12 (stereo not drawn)	> 20	12.8	> 20	
CC(C)c1cnn2c(NCc3ccc(NC(=O)CCCCCCNc4cccc5c4C(=O)N(C4CCC(=O)NC4=O)C5=O)cc3N(C)C)nc(OC3CCN(C)CC3)nc12 (stereo not drawn)	4.89	2.66	4.26	
CC(C)c1cnn2c(NCc3ccccc3-n3ccnc3)nc(OC3CCN(CCOCCOCCOCCNC(=O)COc4cccc5c4C(=O)N(C4CCC(=O)NC4=O)C5=O)CC3)nc12 (stereo not drawn)	> 20	21.5	> 20	
CC(C)c1cnn2c(NCc3ccc(NC(=O)CCCN4CCN(CCCc5cccc6c5CN(C5CCC(=O)NC5=O)C6=O)CC4)cc3)nc(OC3CCN(C)CC3)nc12 (stereo not drawn)	0.59	0.58	0.9	
CC(C)c1cnn2c(NCc3ccccc3N(C)C)nc(OC3CCN(CCOCCNC(=O)COc4cccc5c4C(=O)N(C4CCC(=O)NC4=O)C5=O)CC3)nc12 (stereo not drawn)	> 20	> 20	> 20	
CC(C)c1cnn2c(NCc3cc(CCCCCCNC(=O)COc4cccc5c4C(=O)N(C4CCC(=O)NC4=O)C5=O)ccc3N(C)C)nc(OC3CCN(C)CC3)nc12 (stereo not drawn)	17.9	12.6	12.6	
CC(C)c1cnn2c(NCc3ccc(NC(=O)CCCN4CCN(CCCCCc5cccc6c5CN(C5CCC(=O)NC5=O)C6=O)CC4)cc3)nc(OC3CCN(C)CC3)nc12 (stereo not drawn)	0.34	0.19	0.46	
CC(C)c1cnn2c(NCc3ccccc3)nc(OC3CCN(CCOCCNC(=O)COc4cccc5c4C(=O)N(C4CCC(=O)NC4=O)C5=O)CC3)nc12 (stereo not drawn)	> 20	> 20	> 20	
CC(C)c1cnn2c(NCc3ccc(NC(=O)CCCCCCNC(=O)COc4cccc5c4C(=O)N(C4CCC(=O)NC4=O)C5=O)cc3)nc(OC3CCN(C)CC3)nc12 (stereo not drawn)	1.45	1.63	1.55	
CC(C)c1cnn2c(NCc3ccccc3)nc(OC3CCN(CCOCCOCCNC(=O)COc4cccc5c4C(=O)N(C4CCC(=O)NC4=O)C5=O)CC3)nc12 (stereo not drawn)	> 20	9.88	> 20	
CC(C)c1cnn2c(NCc3ccc(NC(=O)CCCCCCCOc4cccc5c4CN(C4CCC(=O)NC4=O)C5=O)cc3)nc(OC3CCN(C)CC3)nc12 (stereo not drawn)	0.104	0.04	0.072	Active
CC(C)c1cnn2c(NCc3ccc(NC(=O)COCCOCCOCCOc4cccc5c4C(=O)N(C4CCC(=O)NC4=O)C5=O)cc3)nc(OC3CCN(C)CC3)nc12 (stereo not drawn)	4.37	4.69	10.3	
CC(C)c1cnn2c(NCc3ccc(NC(=O)N4CCN(CCCCCc5cccc6c5CN(C5CCC(=O)NC5=O)C6=O)CC4)cc3)nc(OC3CCN(C)CC3)nc12 (stereo not drawn)	0.098	0.074	0.065	
CC(C)c1cnn2c(NCc3ccc(NC(=O)CCCCCCNc4cccc5c4C(=O)N(C4CCC(=O)NC4=O)C5=O)cc3)nc(OC3CCN(C)CC3)nc12 (stereo not drawn)	0.66	0.55	0.53	
CC(C)c1cnn2c(NCc3ccc(NC(=O)CCCCCCOc4cccc5c4CN(C4CCC(=O)NC4=O)C5=O)cc3)nc(OC3CCN(C)CC3)nc12 (stereo not drawn)	0.53	0.47	0.39	Active
CC(C)c1cnn2c(NCc3ccc(CCCCCCNC(=O)COc4cccc5c4C(=O)N(C4CCC(=O)NC4=O)C5=O)cc3)cc(NCCCCCCN)nc12 (stereo not drawn)	10.3	12.9	16.6	
